In patent US5589513A, “Pharmaceutical composition and process for the preparation thereof” (Chinoin Gyogyszer es Vegyeszeti Termekek Gyara Rt., priority 1991, dated 1996):
Where a name gives a salt, the structure may show the parent alone. Read-outs that look alike come from different tables or passages of the source.

What was measured:
[1] = test system: MPP^+ uptake to the striatatal synaptosones; experiment: MPP+ uptake to striatal synaptosomes; assay type: biochemical; conditions: for IC50: striatal synaptosomes; for uptake inhibitory potency: potential metabolites
Method: (§1) 3.) The potential metabolites of deprenyl and p-fluoro-deprenyl, (methylamphetamine, amphetamine and p-fluoro-methylamphetamine, p-fluoro-amphetamine, respectively) have a significant uptake inhibitory potency; they can prevent in vivo the MPTP neurotoxicity without the development of a high degree of MAO inhibition. The tests were carried out according to the method of Heikilla [Nature, 311, 467-469 (1984)].

[2] = test system: DA uptake, rat brain synaptosomas, STRIATUM; experiment: In vitro DA uptake inhibition on brain synaptosomes (striatum); assay type: biochemical
[3] = test system: NA uptake, rat brain synaptosomas, HYPOTHALAMUS; experiment: In vitro NA uptake inhibition on brain synaptosomes (hypothalamus); assay type: biochemical
[4] = test system: DSP-4 neurotoxicity; experiment: Interaction of deprenyl and p-fluoro-deprenyl metabolites with DSP-4 neurotoxicity; assay type: in vivo, rats; conditions: for prevention of DSP-4 induced neurotoxicity in vivo: dose of 1-5 mg/kg i.p., without development of MAO inhibition
Method: The tests were carried out according to the method of Finnegan [Finnegan et al., Eur. J. Pharmacol., 184, 119-126, (1990)].

[5] = test system: MAO-A; experiment: Inhibition of MAO activity in brain nucleus free homogenates, 14C-5-HT substrate; assay type: in vivo, domestic pig; conditions: pig; p. os 96 h; UG-111 48 h (patch 24 h); UG-167 72 h (patch 48 h); UG-191 96 h (patch 72 h)
Method: (§2) MAO activity was measured radiometrically according to the methods of Wurtman and Axelrod [Biochem. Pharmacol. 12. 1414-19; (1963)] with a slight modification [K. Magyar in: Monoamine Oxidases and their Selective Inhibition, Ed.: K. Magyar, Pergamon Press, Akademiai Kiado, Budapest, 11-21; (1980)].

[6] = test system: DSP-4 neurotoxicity; experiment: Inhibition of DSP-4 neurotoxicity after oral deprenyl formulations (hippocampus noradrenaline, survival); assay type: in vivo; conditions: 3 mg/kg p.o.; 50 mg/kg DSP-4 ip.; rats
Method: The inhibition of DSP-4 neurotoxicity was measured in rats. For treating rats the schedule of Finnegan was followed [Finnegan et al., Eur. J. Pharmacol., 184, 119-126, (1990)].
Wistar male rats, weighing 170-200 g were used. Animals were housed six to a cage under constant temperature (22° C.), in a room illuminated 12 h per day. Food and water were freely available. Rats were pretreated orally with 3 mg/kg of the combination of example 3 (1 mg/kg "fast" (F)+2 mg/kg "slow" (S)), 1, 2, 4 and 8 hours before DSP-4 treatment (50 mg/kg; intraperitoneally).
Each hippocampus of the rats […].

[7] = test system: MPTP induced neuronal damage; conditions: literature; cited from earlier work
[8] = test system: MAO-A; experiment: Inhibition of MAO activity in liver, 14C-5-HT substrate; assay type: in vivo, domestic pig; conditions: pig; times as for brain; where three numbers are printed, apparently single animals
Method: as §2

[9] = test system: DSP-4 induced toxicity; conditions: literature; cited from earlier work
[10] = test system: MPTP neurotoxicity; experiment: MPTP neurotoxicity (dopamine, DOPAC, HVA levels); assay type: in vivo; design: DOPAC: unit not given beside the values; conditions: for prevention of MPTP neurotoxicity in vivo: without a high degree of MAO inhibition
Method: as §1

[11] = Distribution of labelled deprenyl and p-fluoro-deprenyl in brain regions and plasma after oral administration; assay type: in vivo; conditions: rats, deprenyl […], p-fluoro-deprenyl 10 mg/kg
From the text: The simultaneous presence and the equal quantities of the two labels indicate the unchanged molecule (the data relate to the molar concentrations calculated on the basis of the two labels).

[12] = pretreatment 10 mg/kg i.p., DSP-4 50
[13] = read-out: In vitro uptake inhibition DA STRIATUM
[14] = pretreatment 1 mg/kg i.p., DSP-4 50
[15] = pretreatment 5 mg/kg i.p., DSP-4 30
[16] = 1. treatment MPTP, 2. treatment the substance (MPTP: phys.s.)
[17] = 1. treatment MPTP, 2. treatment the substance (MPTP: phys.s.), % of physiological salt control
[18] = 1. treatment MPTP, 2. treatment the substance (MPTP: phys.s.), time between treatments 30
[19] = 1. treatment the substance, 2. treatment MPTP
[20] = 1. treatment the substance, 2. treatment MPTP, % of physiological salt control

Which IC50 [1] does the source give for `CC(N)Cc1ccc(F)cc1` (single isomer, unassigned; (+)) [(+)-p-F-amphetamine] here?
The IC50 was 0.1 µM.

What does the source list for `CNC(C)Cc1ccc(F)cc1` (single isomer, unassigned; (+)) [(+)-p-F-metamphetamine]?
IC50 ([2]; read-out: In vitro uptake inhibition DA STRIATUM, listed as (+)-p-FLUORO-MA): 23 µM; IC50 [1]: 1.3 µM; IC50 ([3]; listed as (+)-p-FLUORO-MA): 7.7 µM

Which IC50 [1] does the source give for `CC(N)Cc1ccc(F)cc1` (single isomer, unassigned; (-)) [(-)-p-F-amphetamine] here?
Its IC50 is 0.72 µM.

What does the source list for `CNC(C)Cc1ccc(F)cc1` (single isomer, unassigned; (-)) [(-)-p-F-metamphetamine]?
Survival % [4, 12]: 0%; IC50 ([2]; read-out: In vitro uptake inhibition DA STRIATUM, listed as (-)-p-FLUORO-MA): 300 µM; IC50 [1]: 1.3 µM; IC50 ([3]; listed as (-)-p-FLUORO-MA): 7.5 µM

Which results are given for `C#CCN(C)C(C)Cc1ccc(F)cc1` (single isomer, unassigned; (-)) [(-)-p-FLUORO-D]?
IC50 [2, 13]: 29 µM; IC50 [3]: 13 µM

Which IC50 [2, 13] does the source give for `C#CCN(C)[C@@H](C)Cc1ccc(F)cc1` [(+)-p-FLUORO-D] here?
Its IC50 is 16 µM.

What about the IC50 [3] of the same molecule?
Its IC50 is 6.1 µM.

Which “inhibition of MAO activity (%) brain 14C-5-HT” value [5] does the source give for `C#CCN(C)[C@H](C)Cc1ccccc1` [(-)-deprenyl, (-)N-(-1-phenyl-isopropyl)-N-methyl-propinylamine-hydrochloride] here?
The value was 20.14 ± 6.0%.

And the “prevention of the neurotoxicity of DSP-4” value [6]?
The value was “can prevent”.

And the “effect on MPTP induced neuronal damage” value [7]?
The value was “can be prevented”.

What about the “inhibition of MAO activity (%) liver 14C-5-HT” value [8] of the same molecule?
Its value is 10.45 ± 6.4%.

For `CN[C@H](C)Cc1ccccc1` [(-)-metamphetamine], which “Na content of hippocampus in % ± S.D.” value [4, 14] is on record?
The value was 61 ± 3.5%.

And the Survival % [4, 14]?
Its Survival % is 100%.

And the “Na content of hippocampus in % ± S.D.” value [4, 15]?
The value was 116 ± 2.1%.

What about the Survival % [4, 15] of the same molecule?
The Survival % was 63%.

And the Survival % [4, 12]?
The Survival % was 0%.

Which “effect on DSP-4 induced toxicity / NA depletion” value [9] does the source give for `NC/C(=C/F)CCc1ccc(F)cc1` [MDL 72974A, (E)-4-fluoro-beta-fluoro-ethylene benzene butamine] here?
The value was “fails to prevent DSP-4 induced toxicity”.

Which results are given for `CN1CC=C(c2ccccc2)CC1` [MPTP, 1-methyl-4-phenyl-1,2,3,6-tetrahydropyridine]?
DOPAC [10, 16]: 0.7 ± 0.04; HVA (homovanillic acid) [10, 16]: 1.3 ± 0.07; DOPAC % [10, 17]: 77%; Dopamine % [10, 17]: 53%; HVA (homovanillic acid) [10, 17]: 79%; Dopamine [10, 18]: 8.0 ± 0.5

Which results are given for `OC1(c2ccc(Cl)cc2)c2ccccc2C2=NCCN21` (stereo not drawn) [Mazindol]?
DOPAC [10, 16]: 1.1 ± 0.08; DOPAC % [10, 17]: 122%; Dopamine % [10, 17]: 98%; Dopamine [10, 18]: 14.0 ± 0.8; effect on MPTP induced neuronal damage [7]: can be retarded

For `C#CCN(C)Cc1ccccc1` [Pargyline], which DOPAC [10, 16] is on record?
The DOPAC was 0.5 ± 0.04.

And the “HVA (homovanillic acid)” value [10, 16]?
Its value is 0.9 ± 0.09.

What about the DOPAC % [10, 17] of the same molecule?
The DOPAC % was 55%.

What about the Dopamine % [10, 17] of the same molecule?
The Dopamine % was 47%.

What about the “HVA (homovanillic acid)” value [10, 17] of the same molecule?
Its value is 64%.

And the Dopamine [10, 18]?
Its Dopamine is 7.1 ± 0.6.

And the DOPAC [10, 19]?
The DOPAC was 1.0 ± 0.06.

And the “HVA (homovanillic acid)” value [10, 19]?
Its value is 1.4 ± 0.06.

What about the Dopamine ([10]; 1. treatment the substance, 2. treatment MPTP (pretreatment)) of the same molecule?
The Dopamine was 13.8 ± 0.5.

What about the DOPAC % [10, 20] of the same molecule?
The DOPAC % was 111%.

And the Dopamine % [10, 20]?
The Dopamine % was 91%.

And the “HVA (homovanillic acid)” value [10, 20]?
The value was 100%.

Which results are given for `CC(N)Cc1ccccc1` (stereo not drawn) [amphetamine]?
prevention of DSP-4 induced neurotoxicity in vivo [4]: able to prevent; prevention of MPTP neurotoxicity in vivo [10]: can prevent; uptake inhibitory potency [1]: significant

For `CNCCCN1c2ccccc2CCc2ccccc21` [desipramine, 10,11-Dihydro-N-methyl-5-H-dibenz(6,7)azepine-5-propanamine], which “effect on DSP-4 induced toxicity / NA depletion” value [9] is on record?
Its value is “inhibit the NA-depleting effect of DSP-4”.

With `CC(N)Cc1ccc(F)cc1` (stereo not drawn) [p-fluoro-amphetamine] as the molecule, how does the “prevention of DSP-4 induced neurotoxicity in vivo” value [4] read?
Its value is “able to prevent”.

And the “prevention of MPTP neurotoxicity in vivo” value [10]?
Its value is “can prevent”.

What about the uptake inhibitory potency [1] of the same molecule?
Its uptake inhibitory potency is “significant”.

Which “time in which the unchanged compound was absorbed” value [11] does the source give for `C#CCN(C)C(C)Cc1ccc(F)cc1` (stereo not drawn) [p-fluoro-deprenyl] here?
The value was 15 min.
